Consider two compounds from PMC4133117 (Biochemical pharmacology, 2014).

The target of data set [1] is T1, ABCB1 (Homo sapiens, UniProt P08183). The data set can be described thus: vanadate-sensitive ATPase stimulation in crude membranes. The data set is classed as biochemical.
Data set [2] has as its target T1, ABCB1.

T1 sequence (P08183 whole entry): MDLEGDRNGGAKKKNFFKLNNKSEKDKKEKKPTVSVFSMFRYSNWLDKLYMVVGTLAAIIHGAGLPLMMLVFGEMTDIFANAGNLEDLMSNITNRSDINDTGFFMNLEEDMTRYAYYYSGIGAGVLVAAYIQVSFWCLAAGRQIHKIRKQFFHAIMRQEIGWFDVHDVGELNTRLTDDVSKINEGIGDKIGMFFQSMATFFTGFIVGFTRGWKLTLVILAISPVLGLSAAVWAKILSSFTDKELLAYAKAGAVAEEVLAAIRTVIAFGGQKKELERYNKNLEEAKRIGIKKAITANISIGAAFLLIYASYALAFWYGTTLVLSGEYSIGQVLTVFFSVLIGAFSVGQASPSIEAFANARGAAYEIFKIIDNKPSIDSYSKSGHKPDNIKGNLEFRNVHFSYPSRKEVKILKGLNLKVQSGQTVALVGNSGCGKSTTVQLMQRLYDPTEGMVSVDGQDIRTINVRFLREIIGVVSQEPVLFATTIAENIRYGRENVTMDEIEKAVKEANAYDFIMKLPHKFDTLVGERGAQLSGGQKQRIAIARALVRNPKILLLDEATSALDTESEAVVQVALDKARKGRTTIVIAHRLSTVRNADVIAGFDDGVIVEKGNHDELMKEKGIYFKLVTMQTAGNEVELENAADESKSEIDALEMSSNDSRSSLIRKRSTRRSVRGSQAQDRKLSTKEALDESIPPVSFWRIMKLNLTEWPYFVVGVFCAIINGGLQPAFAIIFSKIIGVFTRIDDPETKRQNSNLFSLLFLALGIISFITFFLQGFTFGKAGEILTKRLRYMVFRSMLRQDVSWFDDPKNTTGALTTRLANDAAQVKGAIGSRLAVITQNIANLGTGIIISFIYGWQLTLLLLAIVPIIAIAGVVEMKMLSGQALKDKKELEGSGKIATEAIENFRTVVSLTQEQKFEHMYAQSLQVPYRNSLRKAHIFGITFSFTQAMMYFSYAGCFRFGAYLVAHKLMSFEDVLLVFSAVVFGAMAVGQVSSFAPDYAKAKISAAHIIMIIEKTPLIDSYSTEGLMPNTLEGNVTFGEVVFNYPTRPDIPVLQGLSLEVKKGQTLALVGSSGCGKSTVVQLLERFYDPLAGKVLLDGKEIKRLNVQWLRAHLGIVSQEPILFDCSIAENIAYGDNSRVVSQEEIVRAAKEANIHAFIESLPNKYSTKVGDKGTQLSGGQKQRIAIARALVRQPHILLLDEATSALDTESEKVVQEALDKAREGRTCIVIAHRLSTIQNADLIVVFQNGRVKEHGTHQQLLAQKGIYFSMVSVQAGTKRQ

On to `CC1(C)CNc2cc(NC(=O)c3cccnc3NCc3ccncc3)ccc21` [motesanib], for which the EC50 (commonly the concentration that produces a half-maximal response) in data set [1] is 893 nM. `CC(=O)O[C@H]1C(=O)[C@@]2(C)[C@H]([C@H](OC(=O)c3ccccc3)[C@]3(O)C[C@H](OC(=O)[C@H](O)[C@@H](NC(=O)c4ccccc4)c4ccccc4)C(C)=C1C3(C)C)[C@]1(OC(C)=O)CO[C@@H]1C[C@@H]2O` [paclitaxel]: in data set [2], the “radiolabelled efflux assay in KB-C2 vs KB-3-1 cells” value is “significantly lower compared to that of parental KB-3-1 cells due to active transport of the [^3H]-paclitaxel by the ABCB1 transporter”.
